# Entries after “also recorded” stand apart in the source; their conditions may differ.
# Tests used:
# [1] = test system: LNCaP, 22RV1, PC3 and DU145 prostate cancer cell lines; assay: Viability (MTS) assay in prostate cancer cell lines; format: cell-based, Human; details: all four cell lines LNCaP, 22RV1, PC3, DU145; MTS, 72 h treatment
# Experimental: All the cell lines were maintained in a humidified incubator at 37° C. and 5% CO2. […] The data were expressed as average % cell viability and fitted in non-linear regression curves using GraphPad Prism 9 (GraphPad Software, La Jolla, CA, USA).
# [2] = target: T1, purified KEAP1 protein (Homo sapiens, UniProt Q14145); assay: Gel-based competitive ABPP assay with IA-alkyne; format: binding; details: purified His-KEAP1, serially diluted 955
# T1 construct: made in house; host or cells: bacterial cells grown in LB and induced with IPTG
# T1 sequence (Q14145 whole entry): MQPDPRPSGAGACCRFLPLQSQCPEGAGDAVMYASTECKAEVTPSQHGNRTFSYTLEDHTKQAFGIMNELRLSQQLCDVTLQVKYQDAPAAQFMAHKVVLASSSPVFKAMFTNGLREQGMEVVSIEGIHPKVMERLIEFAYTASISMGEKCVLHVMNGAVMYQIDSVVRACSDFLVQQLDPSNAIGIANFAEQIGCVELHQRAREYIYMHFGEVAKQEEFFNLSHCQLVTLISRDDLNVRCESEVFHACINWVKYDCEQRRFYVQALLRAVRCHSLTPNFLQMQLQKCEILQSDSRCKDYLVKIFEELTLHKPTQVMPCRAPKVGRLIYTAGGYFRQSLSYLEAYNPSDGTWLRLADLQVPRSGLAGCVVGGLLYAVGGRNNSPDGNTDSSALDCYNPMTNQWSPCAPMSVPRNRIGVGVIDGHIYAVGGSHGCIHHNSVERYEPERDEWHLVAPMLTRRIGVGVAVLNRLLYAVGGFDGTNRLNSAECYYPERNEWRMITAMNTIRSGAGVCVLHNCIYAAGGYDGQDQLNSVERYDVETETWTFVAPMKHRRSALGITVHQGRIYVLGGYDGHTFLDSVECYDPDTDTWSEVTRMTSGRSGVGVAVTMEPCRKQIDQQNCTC
# Experimental: The plasmid pet28a-His6-Keap1 for expressing His-KEAP1 was purchased from Addgene (a gift from Yimon Aye, plasmid #62454). To purify His-KEAP1, the plasmid transformed cells were grown in LB broth at 37° C. with shaking until the optical density at 600 nm reached 0.6-0.7. Isopropyl-β-D-thiogalactopyranoside (1 mM) was added to induce protein expression overnight at 16° C. Cell pellet was resuspended in lysis buffer [50 mM Tris-Hcl (pH 7.5), 150 mM NaCl, 1 mM EDTA, 0.05% NP-40, […], lx protease inhibitor, and 1 mM DTT] and lysed using sonication. The lysate was cleared by centrifugation at 20,000×g for 30 min at 4° C. and purified by using GE Healthcare His GraviTrap™ Kit (Cat. No. 45-002-016, Fisher Scientific). After elution, the proteins were concentrated by using Pierce Protein Concentrators PES, 30K MWCO (Cat. No. 88502, ThermoFisher) and then dialyzed into the buffer containing 50 mM HEPES, 150 mM NaCl, and 0.1 mM EDTA (pH 7.5).
# A gel-based ABPP assay was performed as previously described with some modifications (Ward et al., 2019). Briefly, Purified His-KEAP1 ([…]) was diluted into 50 μL of PBS and 0.5 μL of either DMSO (vehicle) or indicated compound was added to incubate at 25° C. for 1 h, then the samples were treated with 20 µM IA-Alkyne (Cat. No. 7015, Tocris, prepared in DMSO) at 25° C. for 1 h. […]
# [3] = target: CDK9 (Homo sapiens, UniProt P50750); assay: TMT-based global proteomics in MOLT4 cells; format: cell-based; design: endogenous in cells; host or cells: MOLT4
# Chain of CDK9 (P50750 whole entry): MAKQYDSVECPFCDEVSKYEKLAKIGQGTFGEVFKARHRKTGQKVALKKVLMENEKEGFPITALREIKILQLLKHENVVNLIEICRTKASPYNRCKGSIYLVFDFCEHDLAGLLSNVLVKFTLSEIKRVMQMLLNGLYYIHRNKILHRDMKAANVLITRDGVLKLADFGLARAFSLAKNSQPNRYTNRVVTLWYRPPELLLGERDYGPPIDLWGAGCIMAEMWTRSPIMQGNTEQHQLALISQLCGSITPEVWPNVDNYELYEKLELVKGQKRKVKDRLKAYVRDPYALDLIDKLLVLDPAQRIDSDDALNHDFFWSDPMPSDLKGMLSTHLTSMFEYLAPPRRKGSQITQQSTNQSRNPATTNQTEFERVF
# From the text: Sample Preparation and LC-MS/MS analysis. Total protein from cell pellets was reduced, alkylated, and purified by chloroform/methanol extraction prior to digestion with sequencing grade modified porcine trypsin (Cat. No. V5111, Promega). Tryptic peptides were labeled using tandem mass tag isobaric labeling reagents (Cat. No. A34808, ThermoFisher) following the manufacturer's instructions and combined into one 11-plex sample group. The labeled peptide multiplex was separated into 46 fractions on a 100×1.0 mm Acquity BEH C18 column (Waters) using an UltiMate 3000 UHPLC system (Thermo) with a 50 min gradient from 99:1 to 60:40 bufferA:B (Buffer A: 0.1% formic acid, 0.5% acetonitrile; Buffer B: 0.1% formic acid, 99.9% acetonitrile. Both buffers adjusted to pH 10 with ammonium hydroxide for offline separation) ratio under basic pH conditions, and then consolidated into 18 super-fractions. […]
# Data processing and analysis. Proteins were identified and MS3 reporter ions quantified using MaxQuant (version 2.0.3.0; Max Planck Institute) against the Homo sapiens UniprotKB database (March 2021) with a parent ion tolerance of 3 ppm, a fragment ion tolerance of 0.5 Da, and a reporter ion tolerance of 0.003 Da. Scaffold Q+S (Proteome Software) was used to verify MS/MS based peptide and protein identifications (protein identifications were accepted if they could be established with less than 1.0% false discovery and contained at least 2 identified peptides; protein probabilities were assigned by the Protein Prophet algorithm (Nesvizhskii et al., 2003) and to perform reporter ion-based statistical analysis. Protein TMT MS3 reporter ion intensity values were assessed for quality using ProteiNorm for a systematic evaluation of normalization methods (Graw et al., 2020). Cyclic loess normalization (Ritchie et al., 2015) was utilized since it had the highest intragroup correlation and the lowest variance amongst the samples. […]
smiles,measurement,setting,value
"COc1cc(/C=C/C(=O)N2CCC=CC2=O)cc(OC)c1OCCN1CCN(C(=O)CN2CCC(C(=O)Nc3ncc(SCc4ncc(C(C)(C)C)o4)s3)CC2)CC1 [compound 955, (E)-N-(5-(((5-(tert-butyl)oxazol-2-yl)methyl)thio)thiazol-2-yl)-1-(2-(4-(2-(2,6-dimethoxy-4-(3-oxo-3-(6-oxo-3,6-dihydropyridin-1(2H)-yl)prop-1-en-1-yl)phenoxy)ethyl)piperazin-1-yl)-2-oxoethyl)piperidine-4-carboxamide]","EC50, anti-proliferation",[1],single digital nM range
same,competition with IA-alkyne for covalent binding to KEAP1,[2],concentration-dependent manner
same,proteins degraded or downregulated after short treatment (global proteome),"[3]; 0.1 μM 955, 1 hour",only degraded CDK9 and CDK10 and downregulated one downstream protein FYTTD1
same,CDK9 protein level (global proteome),"[3]; 0.1 μM 955 for 1 h and 6 h, 1 μM SNS-032 for 6 h",reduced the protein level of CDK9; also recorded: significant reduction of CDK9
